Molecular target: T1, α2A receptor (Oryctolagus cuniculus, UniProt Q5ZQK3)
T1 construct: The prostatic ends of the vas deferens (2-3 cm) were removed from albino rabbits; from tissue; host or cells: rabbit vas deferens (prostatic end)
T1 sequence (Q5ZQK3 1-451): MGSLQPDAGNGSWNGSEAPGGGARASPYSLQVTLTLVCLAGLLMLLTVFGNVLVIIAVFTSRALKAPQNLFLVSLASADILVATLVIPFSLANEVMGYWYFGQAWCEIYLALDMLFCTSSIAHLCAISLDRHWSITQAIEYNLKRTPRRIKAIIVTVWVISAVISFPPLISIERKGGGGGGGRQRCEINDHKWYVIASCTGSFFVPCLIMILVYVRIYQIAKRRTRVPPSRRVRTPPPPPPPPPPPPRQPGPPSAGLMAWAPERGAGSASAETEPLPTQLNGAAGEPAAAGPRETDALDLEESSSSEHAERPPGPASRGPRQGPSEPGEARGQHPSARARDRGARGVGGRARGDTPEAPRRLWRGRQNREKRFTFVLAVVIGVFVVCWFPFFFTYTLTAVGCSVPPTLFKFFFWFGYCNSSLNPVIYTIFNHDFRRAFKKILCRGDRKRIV
Assay: Vas deferens functional assay: reduction of electrically evoked contractions
Assay type: cell-based
Settings: field-stimulated isolated rabbit vas deferens, 50% reduction in peak height
Procedure: Vas Deferens: The prostatic ends of the vas deferens (2-3 cm) were removed from albino rabbits and mounted between platinum electrodes in 9 mL organ baths containing Krebs-Hensleit solution of the following composition (mM): NaCl 119, KCl 4.7, MgSO4 1.5, KH2PO4 1.2. CaCl2 2.5, NaHCO3 25 and glucose 11. This solution was maintained at 35° C and bubbled with 95% O2 and 5% CO2. The tissue was equilibrated at 0.5 g tension for 30 minutes. The vas deferens strips were then field stimulated at 0.1 Hz, 2 msec, 90 mA using a square wave stimulator (World Precision Instruments A310 Accupulser / A385 Stimulus Isolater), or a Grass S48 stimulator at 0.1 Hz, 2 msec, 70 volts. After 30 minutes of electrical stimulation, cumulative concentration-response curves in 0.25 log units were obtained with a 4 minute contact time for each concentration. Each tissue was used to evaluate only one drug. Tissue contractions produced by the field stimulation were measured isometrically using Grass FT-.03 force-displacement transducers and recorded on a Grass Model 7D physiograph. The reduction in electrically-evoked peak height by the drugs was measured and expressed as a percentage of the pre-drug peak height.
Representative compounds of the present invention, and comparative examples, were tested according to the procedures given above. The receptor binding studies and […] are measures of the affinity of a compound for a particular receptor. The vas deferens assay is a measure of the degree of activation of the α2A affected when a compound binds to that receptor.

EC50	SMILES
86.3 nM	Clc1cccc(Cl)c1Nc1ncc[nH]1
56200 nM	c1ccc(Nc2ncc[nH]2)cc1
1.61 nM	Cc1c(Nc2ncc[nH]2)ccc2c1OCCO2
49.4 nM	Brc1c(Nc2ncc[nH]2)ccc2nccnc12

SMILES	EC50
Cc1c(Nc2ncc[nH]2)ccc2nccnc12	35.3 nM

Source: patent EP0741709B1, “AROMATIC 2-AMINO-IMIDAZOLE DERIVATIVES AS ALPHA-2A ADRENOCEPTOR AGONISTS” (Allergan Sales, Inc., priority 1994, dated 1995)
